Measured values: BindingDB's records for doi:10.1046/j.1472-8206.2002.00076.x (Shinshu University, 2002)
Side chains are listed from the residue outwards. Peptide text beside a SMILES is read from it. * marks the point of attachment. Nicotinoyl = O=C(c1cccnc1)*; Cbz = O=C(OCc1ccccc1)*

Experiments:
[1] = biological target: T1, Type-2 angiotensin II receptor (Rattus norvegicus, UniProt P35351)
T1 sequence (P35351 whole entry): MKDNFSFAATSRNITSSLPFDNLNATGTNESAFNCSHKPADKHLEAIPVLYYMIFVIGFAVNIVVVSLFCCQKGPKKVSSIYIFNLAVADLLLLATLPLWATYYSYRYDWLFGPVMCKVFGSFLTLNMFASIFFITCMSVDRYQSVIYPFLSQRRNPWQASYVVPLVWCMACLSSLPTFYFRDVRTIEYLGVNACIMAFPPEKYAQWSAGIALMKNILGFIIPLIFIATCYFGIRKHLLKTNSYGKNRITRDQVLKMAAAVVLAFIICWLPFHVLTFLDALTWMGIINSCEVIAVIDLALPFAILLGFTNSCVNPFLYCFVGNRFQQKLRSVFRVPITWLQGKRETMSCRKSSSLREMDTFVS

[2] = biological target: T2, Type-1 angiotensin II receptor A (Rattus norvegicus, UniProt P25095)
T2 sequence (P25095 whole entry): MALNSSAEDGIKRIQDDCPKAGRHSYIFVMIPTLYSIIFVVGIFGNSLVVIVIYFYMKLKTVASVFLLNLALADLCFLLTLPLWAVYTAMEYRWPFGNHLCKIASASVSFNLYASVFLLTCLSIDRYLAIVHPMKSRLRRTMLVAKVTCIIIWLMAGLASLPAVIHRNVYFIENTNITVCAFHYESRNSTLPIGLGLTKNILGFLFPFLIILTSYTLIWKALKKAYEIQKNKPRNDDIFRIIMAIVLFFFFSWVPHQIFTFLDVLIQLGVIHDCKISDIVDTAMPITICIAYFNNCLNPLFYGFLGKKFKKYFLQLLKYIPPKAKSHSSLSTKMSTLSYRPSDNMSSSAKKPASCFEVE

[3] = biological target: T3, Type-1 angiotensin II receptor B (Rattus norvegicus, UniProt P29089)
T3 sequence (P29089 whole entry): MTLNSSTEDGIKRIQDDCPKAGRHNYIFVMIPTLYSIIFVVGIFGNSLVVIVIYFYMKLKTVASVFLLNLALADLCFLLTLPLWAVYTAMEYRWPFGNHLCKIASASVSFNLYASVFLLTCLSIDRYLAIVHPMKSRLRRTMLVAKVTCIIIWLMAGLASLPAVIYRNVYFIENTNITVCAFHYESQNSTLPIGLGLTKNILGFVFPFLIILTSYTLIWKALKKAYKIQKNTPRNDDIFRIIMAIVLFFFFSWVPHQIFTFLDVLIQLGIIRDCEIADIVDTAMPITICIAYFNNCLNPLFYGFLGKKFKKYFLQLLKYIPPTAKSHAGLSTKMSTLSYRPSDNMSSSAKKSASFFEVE

[4] = biological target: T4, Type-1 angiotensin II receptor (Homo sapiens, UniProt P30556)
T4 sequence (P30556 whole entry): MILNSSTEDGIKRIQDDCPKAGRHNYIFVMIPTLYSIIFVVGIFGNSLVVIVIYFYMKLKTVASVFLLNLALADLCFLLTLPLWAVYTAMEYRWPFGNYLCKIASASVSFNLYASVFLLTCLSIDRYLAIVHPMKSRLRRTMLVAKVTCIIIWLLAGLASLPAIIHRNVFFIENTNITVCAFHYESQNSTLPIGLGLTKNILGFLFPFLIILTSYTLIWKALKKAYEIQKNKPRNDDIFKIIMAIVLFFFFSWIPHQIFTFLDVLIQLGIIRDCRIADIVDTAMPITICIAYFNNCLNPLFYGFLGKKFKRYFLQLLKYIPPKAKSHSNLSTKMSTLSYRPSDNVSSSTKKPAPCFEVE

| Ki [1] | Ki [2] | Ki [3] | Ki [4] | Structure (SMILES) |
| --- | --- | --- | --- | --- |
| > 10000 nM | 0.57 nM | – | – | CCCCc1nc(Cl)c(C(=O)O)n1Cc1ccc(-c2ccccc2-c2nn[nH]n2)cc1 [2-Butyl-5-chloro-3-[2'-(1H-tetrazol-5-yl)-biphenyl-4-ylmethyl]-3H-imidazole-4-carboxylic acid] |
| > 10000 nM | 0.12 nM | 0.12 nM | 0.17 nM | CCOc1nc2cccc(C(=O)O)c2n1Cc1ccc(-c2ccccc2-c2nnn[nH]2)cc1 |
| 9360 nM | 1.02 nM | 0.67 nM | 1.24 nM | CCc1nn(Cc2ccc(-c3ccccc3-c3nnn[nH]3)cc2)c(=NC(=O)C2=C(C(=O)O)CCC2)s1 [KRH-594] |
| 0.37 nM | – | – | – | CC[C@H](C)[C@H](NC(=O)[C@@H]1CCCN1C(=O)[C@H](Cc1c[nH]cn1)NC(=O)[C@H](CCCCNC(=O)[C@H](CCCN=C(N)N)NC(=O)OCc1ccccc1)NC(=O)[C@H](Cc1ccc(O)cc1)NC(=O)c1cccnc1)C(=O)O [NSC_123794] (Nicotinoyl-YK([Arg-Cbz])HPI-OH) |
